Measurements: US10899764B2, “Imidazo isoindole derivative, preparation method therefor and medical use thereof” (Jiangsu Hengrui Medicine Co., Ltd., priority 2015, dated 2021)
Where a name gives a salt, the structure may show the parent alone. Read-outs that look alike come from different tables or passages of the source.

Legend:
IDO in HeLa cells = IDO in HeLa cells (Homo sapiens (Human), UniProt P14902); assay: Inhibition activity on IDO in HeLa cells (INF-γ induced); format: cell-based; settings: HeLa cells, INF-γ and tryptophan, 48 hours; read-out: IC50 for inhibiting the activity of IDO in HeLa cells
Experimental: Assay for Determining the Inhibition Activity of the Present Compounds on IDO in HeLa Cells
IDO activity in HeLa cells was tested in vitro by the following method.
This method is used to determine the inhibition effect of the compounds of the present invention on the activity of IDO in HeLa cells. (Note: indoleamine 2,3-dioxygenase (IDO) is expressed in the HeLa cell line and induced by interferon gamma (INF-γ)).
The supernatant was removed, serum-free DMEM high glucose medium was added at 90 μL/well, then the compounds contained in the culture medium with INF-γ and tryptophan were added at 10 μL/well (the final concentrations: 10000, 1000, 100, 10, 1, 0.1 nM). […] Then, 80 μL of the supernate was transferred from the 96-well cell culture plate to a 96 well round-bottomed plate, then 30% (W/V) trichloroacetic acid was added at 16 μL/well, then the mixture was incubated for 25 minutes at 65° C. in an incubator. The reaction plate was centrifuged in a centrifuge for 5 minutes at 4700 RPM. Then, 50 μL of the supernatant was transferred from the reaction plate to a 96-well flat-bottomed transparent plate by a multi-channel pipette. Then, 2% (W/V) 4-(dimethylamino)benzaldehyde/glacial acetic acid solution was added at 50 μL/well, then the mixture was mixed uniformly for 1 minute on a shaker. After incubation for 2 minutes at room temperature, the absorbance at 480 nm was read on a Synergy HT Reader.
The inhibition activity of the compounds of the present invention on IDO in HeLa cells was tested by the assay described above.

human IDO1 = human IDO1 (Homo sapiens (Human), UniProt P14902); assay: Inhibition activity on human IDO1 (enzyme assay, absorbance at 480 nm); format: biochemical; settings: read-out: IC50 for inhibiting the activity of human IDO1
Experimental: Assay for Determining the Inhibition Activity of the Present Compounds on Human IDO1
Human IDO1 activity was tested in vitro by the following method.
This method is used to determine the inhibition effect of the compounds of the present invention on the activity of human IDO1.
The human IDO1 gene was transferred to Pet30a plasmid by gene cloning, and then transferred to competent Escherichia coli Rosseta. The IDO1 gene was scaled-up by culturing in liquid LB (Luria-Bertani) medium [which was prepared per liter according to “Molecular Cloning A Laboratory Manual” (J. Sambrook, D. W. Russell)]). The bacteria were collected and lysed by ultrasonic waves. The purified IDO1 was obtained by eluting from a column.
For testing, 24 μL of enzyme (IDO1) was diluted 100 times with 50 mM KPB to 2400 μL. The concentration of the enzyme solution was 2.6 ng/μL. A 96 well reaction plate (AXYGEN, PCR-96-FLT-C) (hereinafter referred to as the “reaction plate”) was added with the enzyme solution at 24 μL/well. The blank well was added with 24 μL of KPB [Preparation of KPB buffer (50 mM): 6.805 g of KH2PO4 was weighed using an analytical balance, and placed into a 1000 mL beaker, deionized water was added with a measuring cylinder to 900 ml, the pH was adjusted to 6.5 by 1M KOH, then the mixture was introduced into a 1 L measuring cylinder, and water was added to 1 L. It was stored at 4° C.]. Then, 1 μL of a compound or DMSO was added into the corresponding wells in the reaction plate. Preparation of solution A: 200 μL of 500 mM L-sodium ascorbate were added with 1050 μL of KPB, then the mixture was mixed uniformly for 3 seconds at the maximum speed in a turbine mixer. Solution B: 100 μL of 10 mM tryptophan were added with 100 μL of 100,000 unit/mL catalase, 5 μL of 10 mM methylene blue, and 1050 μL of KPB successively, then the mixture was mixed uniformly for 3 seconds at the maximum speed in a turbine mixer. Then, 1200 μL of solution A and 1200 μL of solution B were taken and mixed uniformly for 3 seconds at the maximum speed in a turbine mixer. The mixture was added to the reaction plate at 24 μL/well. The reaction plate was placed in a plate centrifuge and centrifuged for 15 seconds at the maximum speed, so that the reaction liquids converged to the bottom. The reaction mixture was mixed uniformly for 30 seconds on a shaker, and incubated for 1 hour at 37° C. in a constant temperature incubator. In the reaction plate, 30% (W/V) trichloroacetic acid was added at 10 μL/well, then the mixture was incubated for 15 minutes at 65° C. in an incubator. The reaction plate was centrifuged in a centrifuge for 5 minutes at 4700 RPM at room temperature. […] Then, 2% (W/V) 4-(dimethylamino)benzaldehyde/glacial acetic acid solution was added at 40 μL/well, and the mixture was mixed uniformly for 1 minute on a shaker at the maximum speed. After incubation for 2 minutes at room temperature, the absorbance at 480 nm was read on a Synergy HT (BIOTEK) reader.
The inhibition activity of the compounds of the present invention on human IDO1 was tested by the assay described above.

[1] = purified recombinant human IDO1, 1 hour at 37° C.

IDO in HeLa cells, sequence (P14902 whole entry): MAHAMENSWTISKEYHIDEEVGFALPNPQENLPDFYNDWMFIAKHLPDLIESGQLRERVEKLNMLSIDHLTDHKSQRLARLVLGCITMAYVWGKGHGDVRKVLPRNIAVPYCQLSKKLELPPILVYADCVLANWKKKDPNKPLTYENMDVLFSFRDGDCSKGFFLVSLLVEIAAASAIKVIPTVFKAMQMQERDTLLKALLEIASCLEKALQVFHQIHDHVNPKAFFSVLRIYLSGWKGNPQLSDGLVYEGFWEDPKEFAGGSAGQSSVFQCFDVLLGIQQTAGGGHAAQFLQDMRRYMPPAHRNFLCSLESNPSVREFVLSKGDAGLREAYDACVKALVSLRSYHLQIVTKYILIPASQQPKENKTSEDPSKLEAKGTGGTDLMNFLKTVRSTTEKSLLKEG
human IDO1, sequence (P14902 whole entry): as above

IC50 (IDO in HeLa cells) [nM] | IC50 (human IDO1; [1]) [nM] | Compound | IC50 (human IDO1) [nM]
188 | 96.2 | COc1ccc(N2CCC(C3c4c(F)cccc4-c4cncn43)CC2)cc1 (stereo not shown) [Example 4, 6-fluoro-5-(1-(4-methoxyphenyl)piperidin-4-yl)-5H-imidazo[5,1-a]isoindole trifluoroacetate] | –
253 | 78.8 | Cn1cc(-c2cccc(N3CCC(C4c5c(F)cccc5-c5cncn54)CC3)c2)cn1 (stereo not shown) [Example 8, 6-fluoro-5-(1-(3-(1-methyl-1H-pyrazol-4-yl)phenyl)piperidin-4-yl)-5H-imidazo[5,1-a]isoindole] | –
477 | 73.2 | O=C(NC1CCOCC1)c1ccc(N2CCC(C3c4c(F)cccc4-c4cncn43)CC2)cc1 (stereo not shown) [Example 11, 4-(4-(6-fluoro-5H-imidazo[5,1-a]isoindol-5-yl)piperidin-1-yl)-N-(tetrahydro-2H-pyran-4-yl)benzamide trifluoroacetate] | –
70.6 | 68.7 | CC(=O)Nc1cccc(N2CCC(C3c4c(F)cccc4-c4cncn43)CC2)c1 (stereo not shown) [Example 12, N-(3-(4-(6-fluoro-5H-imidazo[5,1-a]isoindol-5-yl)piperidin-1-yl)phenyl)acetamide trifluoroacetate] | –
199 | – | Fc1cccc2c1C(C1CCN(c3ccccn3)CC1)n1cncc1-2 (stereo not shown) [Example 15, 6-fluoro-5-(1-(pyridin-2-yl)piperidin-4-yl)-5H-imidazo[5,1-a]isoindole trifluoroacetate] | –
260 | – | Fc1cccc2c1C(C1CCN(c3ncccn3)CC1)n1cncc1-2 (stereo not shown) [Example 16, 6-fluoro-5-(1-(pyrimidin-2-yl)piperidin-4-yl)-5H-imidazo[5,1-a]isoindole trifluoroacetate] | –
477 | – | O=C(Nc1ccccc1)N1CCC(C2c3c(F)cccc3-c3cncn32)CC1 (stereo not shown) [Example 21, 4-(6-fluoro-5H-imidazo[5,1-a]isoindol-5-yl)-N-phenylpiperidine-1-carboxamide trifluoroacetate] | –
130 | 56.9 | N#Cc1ccc(NC(=O)N2CCC(C3c4c(F)cccc4-c4cncn43)CC2)cc1 (stereo not shown) [Example 22, N-(4-cyanophenyl)-4-(6-fluoro-5H-imidazo[5,1-a]isoindol-5-yl)piperidine-1-carboxamide trifluoroacetate] | –
– | – | CS(=O)(=O)N1CCC(n2cc(-c3ccc(N4CCC(C5c6c(F)cccc6-c6cncn65)CC4)cc3)cn2)CC1 (stereo not shown) [Example 31, 6-fluoro-5-(1-(4-(1-(1-(methylsulfonyl)piperidin-4-yl)-1H-pyrazol-4-yl)phenyl)piperidin-4-yl)-5H-imidazo[5,1-a]isoindole trifluoroacetate] | 14.2
47.2 | – | COc1cccc(NC(=O)C2CCC([C@@H]3c4c(F)cccc4-c4cncn43)CC2)c1 (stereo partly drawn) [Example 33, (1S,4S)-4-((R)-6-fluoro-5H-imidazo[5,1-a]isoindol-5-yl)-N-(3-methoxyphenyl)cyclohexanecarboxamide] | –
114 | 17.8 | CS(=O)(=O)N1CCCC(Oc2cnc(N3CCC(C4c5c(F)cccc5-c5cncn54)CC3)nc2)C1 (stereo not shown) [Example 37, 6-fluoro-5-(1-(5-((1-(methylsulfonyl)piperidin-3-yl)oxy)pyrimidin-2-yl)piperidin-4-yl)-5H-imidazo[5,1-a]isoindole trifluoroacetate] | –
151 | 28.1 | Fc1cccc2c1C(C1CCN(c3ccc(OC4CCOC4)cc3)CC1)n1cncc1-2 (stereo not shown) [Example 38, 6-fluoro-5-(1-(4-((tetrahydrofuran-3-yl)oxy)phenyl)piperidin-4-yl)-5H-imidazo[5,1-a]isoindole] | –
88.3 | – | Fc1cccc2c1C(C1CCN(c3ccc(Cl)cn3)CC1)n1cncc1-2 (stereo not shown) [Example 47, 5-(1-(5-chloropyridin-2-yl)piperidin-4-yl)-6-fluoro-5H-imidazo[5,1-a]isoindole] | –

Compound | IC50 (IDO in HeLa cells) [nM] | IC50 (human IDO1; [1]) [nM] | IC50 (human IDO1) [nM]
Fc1cccc2c1C(C1CCN(c3ccc(-c4cnn([C@@H]5CCOC5)c4)cc3)CC1)n1cncc1-2 (stereo partly drawn) [Example 32, 6-fluoro-5-(1-(4-(1-((R)-tetrahydrofuran-3-yl)-1H-pyrazol-4-yl)phenyl)piperidin-4-yl)-5H-imidazo[5,1-a]isoindole trifluoroacetate] | 225 | – | 33
COCCn1cc(-c2ccc(N3CCC(C4c5c(F)cccc5-c5cncn54)CC3)cc2)cn1 (stereo not shown) [Example 42, 6-fluoro-5-(1-(4-(1-(2-methoxyethyl)-1H-pyrazol-4-yl)phenyl)piperidin-4-yl)-5H-imidazo[5,1-a]isoindole trifluoroacetate] | 254 | – | 36.3
CC(=O)NCCn1cc(-c2ccc(N3CCC(C4c5c(F)cccc5-c5cncn54)CC3)cc2)cn1 (stereo not shown) [Example 43, N-(2-(4-(4-(4-(6-fluoro-5H-imidazo[5,1-a]isoindol-5-yl)piperidin-1-yl)phenyl)-1H-pyrazol-1-yl)ethyl)acetamide trifluoroacetate] | 171 | – | 63.3
Fc1cccc2c1C(C1CCN(c3ccc(-c4cnn(C5CCOC5)c4)cc3)CC1)n1cncc1-2 [Example 44, 6-fluoro-5-(1-(4-(1-((R)-tetrahydrofuran-3-yl)-1H-pyrazol-4-yl)phenyl)piperidin-4-yl)-5H-imidazo[5,1-a]isoindole trifluoroacetate] | 175 | – | 16.6
